Data from US20040110776A1, “Use of propentofylline to control intraocular pressure” (priority 2003, published 2004).

Tests used:
human anterior segment = details: perfusion of the anterior segment; cited from earlier work
[1] = test system: MMP-3 expression in cultured human trabecular meshwork (HTM-35D) cells; test: MMP-3 expression in cultured human trabecular meshwork (HTM-35D) cells, proMMP-3 ELISA of medium; type: cell-based; details: 72 hours; for change in MMP-3 expression in the TM cells: indicated concentration (FIG. 1, lower panel)
Excerpt: Propentofylline was unexpectedly discovered to stimulate the expression of metalloproteinase-3 (MMP-3; stromelysin) in cultured human trabecular meshwork cells.
Effect of Various Compounds on MMP-3 Expression in Cultured Human Trabecular Meshwork (HTM-35D) Cells
Human TM cells were isolated, characterized and cultured as described (Steely et al, The effects of dexamethasone on fibronectin expression in cultured human trabecular meshwork cells, Investigative Ophthalmology and Visual Science, 1992;33:2242-2250) They were maintained at 5% CO2 and 37° C. in a medium consisting of Dulbecco's modified Eagle medium with Glutamax I supplemented with 10% fetal bovine serum and 50 μg/mL gentamicin. Confluent cell cultures were treated with the indicated compounds at the indicated final concentration for 72 hours and the medium assayed for proMMP-3 by a commercially available ELISA assay kit. (See FIG. 1.) Abbreviations: PPF-OH is hydroxypropentofylline.

Rabbit IOP = Rabbit IOP after topical ocular dosing (pneumatonometer); type: in vivo; details: for effect on IOP of rabbits (in words): 500 μg topical (2×25 μL, 1% solution); for % Change in IOP Mean / IOP (mmHg) Mean: 500 μg topical, n = 10
Experimental: When propentofylline was tested in the rabbit for its potential effect on IOP. […] In this study, the rabbits were placed in restrainers, and IOP was determined with an Alcon Pneumatonometer after light corneal anesthesia with 0.1% proparacaine (Alcaine® diluted with physiogical saline). Following each IOP measurement, residual anesthetic was washed away with saline. After two baseline measurements, animals were dosed topically on the cornea with vehicle or propentofylline (2×25 μL, 1% solution). IOP measurements were taken at indicated intervals.

[2] = test system: IOP in ocular normotensive rabbits; details: topical instillation of 2%; cited from earlier work
lasered monkey eyes = test: IOP in lasered (ocular hypertensive) monkey eyes; type: in vivo; details: for IOP-lowering effect, single dose: 500 μg in aqueous solution, topical, lasered eye of unanesthetized monkeys; for IOP-lowering effect after repeated doses: 500 μg twice daily, 7 consecutive days, lasered monkey eyes
Experimental: The IOP-lowering effect of propentofylline in primates was discovered when tested in ocular hypertensive monkeys. In this animal model, the IOP of cynomolgus monkeys was artificially elevated by laser-induced photocoagulation of the TM.
Top Panel: IOP-lowering effect of Propentofylline (PPF) (500 μg) in lasered monkey eyes.
These monkeys received 500 μg of propentofylline twice daily for the indicated days and the IOP was measured right after the morning dosing.
Studies were performed as described previously (Toris, et al., Aqueous humor dynamics in monkeys with laser-induced glaucoma, Journal of Ocular Pharmacology and Therapeutics, 2000;16:19-27). (See FIG. 3.)

[3] = test system: anterior segments of non-glaucomatous donor eyes; test: Outflow in human ocular perfusion organ culture; details: 100 μM continuous perfusion, days 2 and 3 after initiation of perfusion
Experimental: In this ex vivo study, the anterior segments of non-glaucomatous donor eyes were perfused continuously with 100 μM of propentofylline.
Human ocular perfusion organ culture was performed as described (Tschumper, et al. Glycosaminoglycans of human trabecular meshwork in perfusion organ culture. Current Eye Research, 1990;9:363-369; Clark et al, Dexamethasone-induced ocular hypertension in perfusion-cultured human eyes. Investigative Ophthalmology and Visual Science 1995;36:478-489). Briefly, human cadaver eyes, 16 to 20 hours post mortem, were dissected at the equator and the lens, vitreous and iris were removed. The anterior segment of the eye, including cornea and sclera ring containing TM and ciliary body, was placed into a custom-made plexiglass culture dish and sealed in place with a plexiglass O-ring. Culture media (Dulbecco's modified Eagle medium) was placed in a reservoir and perfused through a central cannula in the bottom of the dish. The reservoir was raised to generate approximately 11 mmHg of hydrostatic pressure relative to the center of the perfused eye. The weight of the reservoir was recorded daily. […]
After a 2-4 days stabilization period, the eyes were perfused with either 100 μM propentofylline (PPF) or vehicle alone and their outflow rates monitored for is another 4 days. * represents p<0.05 by Student's t-test. […]

IOP in the rabbit = details: cited from earlier work

N[C@@H](Cc1c[nH]c2ccccc12)C(=O)NO [L-tryptophan hydroxamate]
effect on outflow facility / aqueous outflow (in words) (human anterior segment): suppressed aqueous outflow

CC(=O)CCCCn1c(=O)c2c(ncn2C)n(C)c1=O [Pentoxifylline]
change in MMP-3 expression in the TM cells [1]: did not produce a statistically significant change
effect on IOP of rabbits (in words) (Rabbit IOP): did not significantly lower IOP
% Change in IOP Mean (Rabbit IOP; 0 hour after treatment): 0.0%
IOP (mmHg) Mean (Rabbit IOP; 0 hour after treatment): 23.8 mmHg
% Change in IOP Mean (Rabbit IOP; 1 hour after treatment): −8.9%
IOP (mmHg) Mean (Rabbit IOP; 1 hour after treatment): 21.6 mmHg
% Change in IOP Mean (Rabbit IOP; 3 hours after treatment): −1.8%
IOP (mmHg) Mean (Rabbit IOP; 3 hours after treatment): 23.1 mmHg
% Change in IOP Mean (Rabbit IOP; 5 hours after treatment): 17.5%
IOP (mmHg) Mean (Rabbit IOP; 5 hours after treatment): 27.8 mmHg
% Change in IOP Mean (Rabbit IOP; 7 hours after treatment): 15.9%
IOP (mmHg) Mean (Rabbit IOP; 7 hours after treatment): 27.3 mmHg
effect on IOP [2]: slight decrease in IOP

CCCn1cnc2c1c(=O)n(CCCCC(C)=O)c(=O)n2C [Propentofylline, 3-methyl-1-(5′-oxohexyl)-7-propyl-xanthine]
IOP-lowering effect, single dose (lasered monkey eyes): clearly reduced IOP at 1 hour
IOP-lowering effect, single dose (lasered monkey eyes; listed as propentofylline): dramatic decrease in IOP
IOP-lowering effect after repeated doses (lasered monkey eyes): ocular hypotensive even after repeated doses
IOP-lowering effect after repeated doses (lasered monkey eyes; listed as propentofylline): persisted even after 7 consecutive days
tolerability (lasered monkey eyes; monkeys, 500 μg topical): well tolerated
expression of MMP-3 ([1]; 100 μM, cultured human trabecular meshwork cells): significantly increased the expression of MMP-3
effect on IOP of rabbits (in words) (Rabbit IOP): did not affect the IOP of rabbits
tolerability (Rabbit IOP; 500 μg topical onto the eye): well tolerated
% Change in IOP Mean (Rabbit IOP; 0 hour after treatment): 0.0%
IOP (mmHg) Mean (Rabbit IOP; 0 hour after treatment): 23.5 mmHg
% Change in IOP Mean (Rabbit IOP; 1 hour after treatment): −10.0%
IOP (mmHg) Mean (Rabbit IOP; 1 hour after treatment): 21.0 mmHg
% Change in IOP Mean (Rabbit IOP; 3 hours after treatment): 1.3%
IOP (mmHg) Mean (Rabbit IOP; 3 hours after treatment): 23.6 mmHg
% Change in IOP Mean (Rabbit IOP; 5 hours after treatment): 1.1%
IOP (mmHg) Mean (Rabbit IOP; 5 hours after treatment): 23.5 mmHg
% Change in IOP Mean (Rabbit IOP; 7 hours after treatment): 4.7%
IOP (mmHg) Mean (Rabbit IOP; 7 hours after treatment): 24.0 mmHg
outflow rates compared to vehicle-treated eyes [3]: significantly increased

OCCN(CCO)c1nc(N2CCCCC2)c2nc(N(CCO)CCO)nc(N3CCCCC3)c2n1 [dipyridamole]
change in MMP-3 expression in the TM cells [1]: did not produce a statistically significant change

CCCn1cnc2c1c(=O)n(CCCCC(C)O)c(=O)n2C (stereo not drawn) [hydroxy-propentofylline]
change in MMP-3 expression in the TM cells [1]: did not produce a statistically significant change

CC(C)OC(=O)CCC/C=C\C[C@@H]1[C@@H](CC[C@@H](O)CCc2ccccc2)[C@H](O)C[C@@H]1O [latanoprost]
effect on IOP in the rabbit (IOP in the rabbit): no measurable effect on IOP

CN(C)c1ccc(O)c2c1C[C@H]1C[C@H]3[C@H](N(C)C)C(O)=C(C(N)=O)C(=O)[C@@]3(O)C(O)=C1C2=O [minocylcine]
effect on outflow facility / aqueous outflow (in words) (human anterior segment): suppressed aqueous outflow

CC[C@@H]1C(=O)OC[C@@H]1Cc1cncn1C [pilocarpine]
effect on IOP in the rabbit (IOP in the rabbit): no measurable effect on IOP

B1: interleukin-1α: cytokine known to increase the expression of matrix metalloproteinases in the TM (protein, UniProt P01583 113-271, looked up)
Interleukin-1 alpha: SAPFSFLSNVKYNFMRIIKYEFILNDALNQSIIRANDQYLTAAALHNLDEAVKFDMGAYKSSKDDAKITVILRISKTQLYVTAQDEDQPVLLKEMPEIPKTITGSETNLLFFWETHGTKNYFTSVAHPNLFIATKQDYWVCLAGGPPSITDFQILENQA
effect on outflow facility / aqueous outflow (in words) (human anterior segment): augmented the outflow facility
